# Data as given in patent publication US9802927B2, “Oxadiazine compounds and methods of use thereof” (Denali Therapeutics, Inc., priority 2015, dated 2017).
# Tested on: Aβ42
# Assay: In vitro cell screening assay in H4 cells expressing human APP751: Aβ42 by sandwich ELISA
# Assay type: cell-based
# Conditions: compounds 0.003-10 μM, incubated overnight (16-18 h), sandwich ELISA of supernatant
# Protocol: Human neuroglioma H4 cells were transfected with a pcDNA3.1 plasmid expressing human wild type APP751 cDNA and a stable cell line was generated using G418 selection. Cells were plated at 15,000 cells/well in Costar 96-well plates and placed at 37° C. and 5% CO2. Six hours after plating, cells were washed three times with Pro293™ chemically defined medium, followed by addition of compounds (0.003-10 μM, final DMSO concentration of 0.33%). Plates were incubated overnight (16-18 h) and supernatant was removed for quantification of Aβ peptides by sandwich ELISA. Cytotoxicity was evaluated using Cell-Titer 96W AQueous One Solution Cell Proliferation Assay according to the manufacturer's protocol.
# Aβ peptide levels were quantified by sandwich ELISA. 96-well plates were coated with C-terminal specific Aβ antibodies recognizing either Aβ37, Aβ38, Aβ40, Aβ42, Aβ43 or a N-terminal specific Aβ antibody to detect Aβ 1-x. Plates were then blocked overnight at 4° C. with 1% bovine serum albumin (BSA) in PBS-T. Plates were washed and 100 μl of cultured cell supernatant or synthetic Aβ peptide standards and a detection antibody (4G8-HRP) were applied to the blocked plate and incubated overnight at 4° C. The next day, wells were washed before the addition of detection substrate (TMB peroxidase). Plates were then read for absorbance at 450 nm on a Molecular Devices SpectraMax M5e Microplate Reader.
# Compound-treated samples were normalized to samples treated with DMSO alone (no inhibition) and to samples treated with DAPT. EC50 values were calculated from values reported as percent of DMSO controls using nonlinear regression, based on a sigmoidal dose response (variable slope) model. GraphPAD software from Prism used for calculation.
row,Compound,EC50 [nM]
1,"COc1nc(C2=NOCC(c3sc4ccccc4c3C)N2)ccc1-n1cnc(C)c1 (single isomer, unassigned; (+)) [Example 66B, (+)-3-(6-methoxy-5-(4-methyl-1H-imidazol-1-yl)pyridin-2-yl)-5-(3-methylbenzo [b]thiophen-2-yl)-5,6-dihydro-4H-1,2,4-oxadiazine]",9.1
2,"COc1nc(C2=NOCC(c3csc4ccccc34)N2)ccc1-n1cnc(C)c1 (single isomer, unassigned; (+)) [Example 68B, (+)-5-(benzo [b]thiophen-3-yl)-3-(6-methoxy-5-(4-methyl-1H-imidazol-1-yl)pyridin-2-yl)-5,6-dihydro-4H-1,2,4-oxadiazine]",20.8
3,"COc1nc(C2=NOCC(c3ccc(OC(F)(F)F)cc3)N2)ccc1-n1cnc(C)c1 (single isomer, unassigned; (+)) [Example 70B, (+)-3-(6-methoxy-5-(4-methyl-1H-imidazol-1-yl)pyridin-2-yl)-5-(4-(trifluoromethoxy)phenyl)-5,6-dihydro-4H-1,2,4-oxadiazine]",21.8
4,"CCn1cc(C2CON=C(c3ccc(-n4cnc(C)c4)c(OC)n3)N2)c2cc(Cl)c(F)cc21 (single isomer, unassigned; (+)) [Example 73B, (+)-5-(5-chloro-1-ethyl-6-fluoro-1H-indol-3-yl)-3-(6-methoxy-5-(4-methyl-1H-imidazol-1-yl)pyridin-2-yl)-5,6-dihydro-4H-1,2,4-oxadiazine]",3.9
5,"COc1nc(C2=NOCC(c3ccc(F)c(F)c3)N2)ccc1-n1cnc(C)c1 (single isomer, unassigned; (+)) [Example 75B, (+)-5-(3,4-difluorophenyl)-3-(6-methoxy-5-(4-methyl-1H-imidazol-1-yl)pyridin-2-yl)-5,6-dihydro-4H-1,2,4-oxadiazine]",92.2
6,"COc1nc(C2=NOCC(c3ccc(Cl)c(C)c3)N2)ccc1-n1cnc(C)c1 (single isomer, unassigned; (+)) [Example 86B, (+)-5-(4-chloro-3-methylphenyl)-3-(6-methoxy-5-(4-methyl-1H-imidazol-1-yl)pyridin-2-yl)-5,6-dihydro-4H-1,2,4-oxadiazine]",10.4
7,"COc1nc(C2=NOCC(c3cc(F)c(F)c(F)c3)N2)ccc1-n1cnc(C)c1 (single isomer, unassigned; (+)) [Example 91B, (+)-3-(6-methoxy-5-(4-methyl-1H-imidazol-1-yl)pyridin-2-yl)-5-(3,4,5-trifluorophenyl)-5,6-dihydro-4H-1,2,4-oxadiazine]",36.5
8,"COc1nc(C2=NOCC(c3ccc(OC(F)F)cc3)N2)ccc1-n1cnc(C)c1 (single isomer, unassigned; (+)) [Example 93B, (+)-5-(4-(difluoromethoxy)phenyl)-3-(6-methoxy-5-(4-methyl-1H-imidazol-1-yl)pyridin-2-yl)-5,6-dihydro-4H-1,2,4-oxadiazine]",73
9,"COc1nc(C2=NOCC(c3cn(C)c4cc(F)c(C(F)(F)F)cc34)N2)ccc1-n1cnc(C)c1 (single isomer, unassigned; (+)) [Example 104B, (+)-5-(6-fluoro-1-methyl-5-(trifluoromethyl)-1H-indol-3-yl)-3-(6-methoxy-5-(4-methyl-1H-imidazol-1-yl)pyridin-2-yl)-5,6-dihydro-4H-1,2,4-oxadiazine]",4.6
10,"COc1nc(C2=NOCC(c3ccc(Cl)c(F)c3)N2)ccc1-n1cnc(C)c1 (single isomer, unassigned; (+)) [Example 106B, (+)-5-(4-chloro-3-fluorophenyl)-3-(6-methoxy-5-(4-methyl-1H-imidazol-1-yl)pyridin-2-yl)-5,6-dihydro-4H-1,2,4-oxadiazine]",22.9
11,"COc1nc(C2=NOCC(c3cccc(C(F)(F)F)c3)N2)ccc1-n1cnc(C)c1 (single isomer, unassigned; (+)) [Example 113B, (+)-3-(6-methoxy-5-(4-methyl-1H-imidazol-1-yl)pyridin-2-yl)-5-(3-(trifluoromethyl)phenyl)-5,6-dihydro-4H-1,2,4-oxadiazine]",43

# Results, then the molecule that gave them:
row,EC50 [nM],Compound
1,8.9,"COc1nc(C2=NOCC(c3cc4ccc(Cl)cc4o3)N2)ccc1-n1cnc(C)c1 (single isomer, unassigned; (+)) [Example 78B, (+)-5-(6-chlorobenzofuran-2-yl)-3-(6-methoxy-5-(4-methyl-1H-imidazol-1-yl)pyridin-2-yl)-5,6-dihydro-4H-1,2,4-oxadiazine]"
2,43.1,"COc1nc(C2=NOCC(c3cc(F)cc(F)c3)N2)ccc1-n1cnc(C)c1 (single isomer, unassigned; (+)) [Example 81B, (+)-5-(3,5-difluorophenyl)-3-(6-methoxy-5-(4-methyl-1H-imidazol-1-yl)pyridin-2-yl)-5,6-dihydro-4H-1,2,4-oxadiazine]"
3,29.7,"COc1nc(C2=NOCC(c3cc4cc(F)ccc4o3)N2)ccc1-n1cnc(C)c1 (single isomer, unassigned; (+)) [Example 84B, (+)-5-(5-fluorobenzofuran-2-yl)-3-(6-methoxy-5-(4-methyl-1H-imidazol-1-yl)pyridin-2-yl)-5,6-dihydro-4H-1,2,4-oxadiazine]"
4,44.2,"COc1nc(C2=NOCC(c3cc4cccc(F)c4o3)N2)ccc1-n1cnc(C)c1 (single isomer, unassigned; (+)) [Example 89B, (+)-5-(7-fluorobenzofuran-2-yl)-3-(6-methoxy-5-(4-methyl-1H-imidazol-1-yl)pyridin-2-yl)-5,6-dihydro-4H-1,2,4-oxadiazine]"
5,12.7,"COc1nc(C2=NOCC(c3cc4c(Cl)cccc4o3)N2)ccc1-n1cnc(C)c1 (single isomer, unassigned; (+)) [Example 96B, (+)-5-(4-chlorobenzofuran-2-yl)-3-(6-methoxy-5-(4-methyl-1H-imidazol-1-yl)pyridin-2-yl)-5,6-dihydro-4H-1,2,4-oxadiazine]"
6,856,"COc1nc(C2=NOCC(c3cc4c(F)cccc4o3)N2)ccc1-n1cnc(C)c1 (single isomer, unassigned; (+)) [Example 99A, (+)-5-(4-fluorobenzofuran-2-yl)-3-(6-methoxy-5-(4-methyl-1H-imidazol-1-yl)pyridin-2-yl)-5,6-dihydro-4H-1,2,4-oxadiazine]"
7,10.8,"COc1nc(C2=NOCC(c3oc4ccc(F)cc4c3C)N2)ccc1-n1cnc(C)c1 (single isomer, unassigned; (+)) [Example 101B, (+)-5-(5-fluoro-3-methylbenzofuran-2-yl)-3-(6-methoxy-5-(4-methyl-1H-imidazol-1-yl)pyridin-2-yl)-5,6-dihydro-4H-1,2,4-oxadiazine]"
8,23.2,"COc1nc(C2=NOCC(c3ccc(F)c(Cl)c3)N2)ccc1-n1cnc(C)c1 (single isomer, unassigned; (+)) [Example 108B, (+)-5-(3-chloro-4-fluorophenyl)-3-(6-methoxy-5-(4-methyl-1H-imidazol-1-yl)pyridin-2-yl)-5,6-dihydro-4H-1,2,4-oxadiazine]"
9,22.6,"COc1nc(C2=NOCC(c3cc(F)cc(Cl)c3)N2)ccc1-n1cnc(C)c1 (single isomer, unassigned; (+)) [Example 111B, (+)-5-(3-chloro-5-fluorophenyl)-3-(6-methoxy-5-(4-methyl-1H-imidazol-1-yl)pyridin-2-yl)-5,6-dihydro-4H-1,2,4-oxadiazine]"
